Results as given in patent US10597388B2, “Pyridazinone herbicides” (FMC CORPORATION, priority 2014, dated 2020).

Legend:
Assay in all cases: Test C greenhouse herbicide test, pre- and postemergence
Type in all cases: in vivo
[1] = tested on: blackgrass (Alopecurus myosuroides)
How it was run: (§1)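 Percent-control ratings (0 none, 100 complete) came from visual comparison with controls held alongside in the greenhouse for 13–15 d. Treatments covered soil application at sowing and foliar application to young plants 2–18 cm tall.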

corn (Zea mays) = tested on: corn (Zea mays)
How it was run: as §1

[2] = tested on: crabgrass, large (large crabgrass, Digitaria sanguinalis)
How it was run: as §1

[3] = tested on: foxtail, giant (giant foxtail, Setaria faberii)
How it was run: as §1

[4] = tested on: galium (catchweed bedstraw, Galium aparine)
How it was run: as §1

[5] = tested on: johnsongrass (Sorghum halepense)
How it was run: as §1

[6] = tested on: lambsquarters (Chenopodium album)
How it was run: as §1

[7] = tested on: morningglory (Ipomoea coccinea)
How it was run: as §1

[8] = tested on: nutsedge, yellow (yellow nutsedge, Cyperus esculentus)
How it was run: as §1

[9] = tested on: oilseed rape (Brassica napus)
How it was run: as §1

[10] = tested on: pigweed (Amaranthus retroflexus)
How it was run: as §1

[11] = tested on: ryegrass, Italian (Italian ryegrass, Lolium multiflorum)
How it was run: as §1

soybean (Glycine max) = tested on: soybean (Glycine max)
How it was run: as §1

[12] = tested on: velvetleaf (Abutilon theophrasti)
How it was run: as §1

[13] = tested on: waterhemp (common waterhemp, Amaranthus rudis)
How it was run: as §1

[14] = tested on: wheat (winter wheat, Triticum aestivum)
How it was run: as §1

[15] = Postemergence, 31 g ai/ha, 0 to 100 scale (0 no effect, 100 complete control)
[16] = Postemergence, 125 g ai/ha, scale 0 to 100, 0 is no effect, 100 is complete control
[17] = Postemergence, 250 g ai/ha, scale 0 to 100, 0 no effect, 100 complete control, 13 to 15 d
[18] = Preemergence, 31 g ai/ha, scale 0 to 100, 0 is no effect, 100 is complete control
[19] = Preemergence, 62 g ai/ha, scale 0 to 100, 0 is no effect, 100 is complete control
[20] = Preemergence, 125 g ai/ha, scale 0 to 100, 0 is no effect, 100 is complete control
[21] = Preemergence, 250 g ai/ha, scale 0 to 100 (0 no effect, 100 complete control)
[22] = postemergence, 62 g ai/ha, scale 0 to 100, 0 no effect, 100 complete control

## CC(=O)Oc1c(C)nn(C)c(=O)c1-c1ccc(F)c2ccccc12 [Compound 90]
[1]; [15]
  Blackgrass plant response rating: 10
[1]; [16]
  Plant response rating, Blackgrass: 25
[1]; [17]
  Plant response rating, Blackgrass: 40
[1]; [18]
  Plant response rating, Blackgrass: 25
[1]; [19]
  Plant response rating, Blackgrass: 40
[1]; [20]
  Plant response rating, Blackgrass: 50
[1]; [21]
  Blackgrass plant response rating: 55
[1]; [22]
  Blackgrass plant response rating: 15
Corn (Zea mays); [15]
  Corn plant response rating: 5
Corn (Zea mays); [16]
  Plant response rating, Corn: 10
Corn (Zea mays); [17]
  Plant response rating, Corn: 25
Corn (Zea mays); [18]
  Plant response rating, Corn: 0
Corn (Zea mays); [19]
  Plant response rating, Corn: 0
Corn (Zea mays); [20]
  Plant response rating, Corn: 5
Corn (Zea mays); [21]
  Corn plant response rating: 30
Corn (Zea mays); [22]
  Corn plant response rating: 10
[2]; [16]
  Plant response rating, Crabgrass, Large: 35
[2]; [17]
  Plant response rating, Crabgrass, Large: 75
[2]; [18]
  Plant response rating, Crabgrass, Large: 35
[2]; [19]
  Plant response rating, Crabgrass, Large: 70
[2]; [20]
  Plant response rating, Crabgrass, Large: 75
[2]; [21]
  Crabgrass, Large plant response rating: 85
[2]; [22]
  Crabgrass, Large plant response rating: 15
[3]; [16]
  Plant response rating, Foxtail, Giant: 55
[3]; [17]
  Plant response rating, Foxtail, Giant: 75
[3]; [18]
  Plant response rating, Foxtail, Giant: 75
[3]; [19]
  Plant response rating, Foxtail, Giant: 75
[3]; [20]
  Plant response rating, Foxtail, Giant: 90
[3]; [21]
  Foxtail, Giant plant response rating: 95
[3]; [22]
  Foxtail, Giant plant response rating: 25
[4]; [16]
  Plant response rating, Galium: 95
[4]; [17]
  Plant response rating, Galium: 95
[4]; [22]
  Galium plant response rating: 95
[5]; [16]
  Plant response rating, Johnsongrass: 10
[5]; [17]
  Plant response rating, Johnsongrass: 20
[5]; [18]
  Plant response rating, Johnsongrass: 50
[5]; [19]
  Plant response rating, Johnsongrass: 55
[5]; [20]
  Plant response rating, Johnsongrass: 60
[5]; [21]
  Johnsongrass plant response rating: 65
[5]; [22]
  Johnsongrass plant response rating: 10
[6]; [16]
  Plant response rating, Lambsquarters: 98
[6]; [17]
  Plant response rating, Lambsquarters: 100
[6]; [18]
  Plant response rating, Lambsquarters: 75
[6]; [19]
  Plant response rating, Lambsquarters: 80
[6]; [20]
  Plant response rating, Lambsquarters: 85
[6]; [21]
  Lambsquarters plant response rating: 100
[6]; [22]
  Lambsquarters plant response rating: 98
[7]; [16]
  Plant response rating, Morningglory: 100
[7]; [17]
  Plant response rating, Morningglory: 100
[7]; [18]
  Plant response rating, Morningglory: 85
[7]; [19]
  Plant response rating, Morningglory: 85
[7]; [20]
  Plant response rating, Morningglory: 98
[7]; [21]
  Morningglory plant response rating: 98
[7]; [22]
  Morningglory plant response rating: 100
[8]; [16]
  Plant response rating, Nutsedge, Yellow: 90
[8]; [17]
  Plant response rating, Nutsedge, Yellow: 85
[8]; [18]
  Plant response rating, Nutsedge, Yellow: 55
[8]; [19]
  Plant response rating, Nutsedge, Yellow: 45
[8]; [20]
  Plant response rating, Nutsedge, Yellow: 85
[8]; [21]
  Nutsedge, Yellow plant response rating: 90
[8]; [22]
  Nutsedge, Yellow plant response rating: 80
[9]; [16]
  Plant response rating, Oilseed Rape: 0
[9]; [17]
  Plant response rating, Oilseed Rape: 5
[9]; [18]
  Plant response rating, Oilseed Rape: 30
[9]; [19]
  Plant response rating, Oilseed Rape: 35
[9]; [20]
  Plant response rating, Oilseed Rape: 50
[9]; [21]
  Oilseed Rape plant response rating: 90
[9]; [22]
  Oilseed Rape plant response rating: 0
[10]; [16]
  Plant response rating, Pigweed: 95
[10]; [17]
  Plant response rating, Pigweed: 100
[10]; [18]
  Plant response rating, Pigweed: 100
[10]; [19]
  Plant response rating, Pigweed: 100
[10]; [20]
  Plant response rating, Pigweed: 100
[10]; [21]
  Pigweed plant response rating: 100
[10]; [22]
  Pigweed plant response rating: 80
[11]; [16]
  Plant response rating, Ryegrass, Italian: 90
[11]; [17]
  Plant response rating, Ryegrass, Italian: 90
[11]; [18]
  Plant response rating, Ryegrass, Italian: 90
[11]; [19]
  Plant response rating, Ryegrass, Italian: 95
[11]; [20]
  Plant response rating, Ryegrass, Italian: 95
[11]; [21]
  Ryegrass, Italian plant response rating: 95
[11]; [22]
  Ryegrass, Italian plant response rating: 90
Soybean (Glycine max); [16]
  Plant response rating, Soybean: 55
Soybean (Glycine max); [17]
  Plant response rating, Soybean: 70
Soybean (Glycine max); [18]
  Plant response rating, Soybean: 0
Soybean (Glycine max); [19]
  Plant response rating, Soybean: 0
Soybean (Glycine max); [20]
  Plant response rating, Soybean: 10
Soybean (Glycine max); [21]
  Soybean plant response rating: 100
Soybean (Glycine max); [22]
  Soybean plant response rating: 50
[12]; [16]
  Plant response rating, Velvetleaf: 98
[12]; [17]
  Plant response rating, Velvetleaf: 98
[12]; [18]
  Plant response rating, Velvetleaf: 85
[12]; [19]
  Plant response rating, Velvetleaf: 90
[12]; [20]
  Plant response rating, Velvetleaf: 95
[12]; [21]
  Velvetleaf plant response rating: 95
[12]; [22]
  Velvetleaf plant response rating: 75
[13]; [16]
  Plant response rating, Waterhemp: 100
[13]; [17]
  Plant response rating, Waterhemp: 100
[13]; [18]
  Plant response rating, Waterhemp: 75
[13]; [19]
  Plant response rating, Waterhemp: 90
[13]; [20]
  Plant response rating, Waterhemp: 100
[13]; [21]
  Waterhemp plant response rating: 100
[13]; [22]
  Waterhemp plant response rating: 100
[14]; [16]
  Plant response rating, Wheat: 10
[14]; [17]
  Plant response rating, Wheat: 30
[14]; [18]
  Plant response rating, Wheat: 5
[14]; [19]
  Plant response rating, Wheat: 0
[14]; [20]
  Plant response rating, Wheat: 35
[14]; [21]
  Wheat plant response rating: 40
[14]; [22]
  Wheat plant response rating: 10

## Cc1ccc2ccccc2c1-c1c(O)cnn(C)c1=O [Compound 56]
[1]; [15]
  Blackgrass plant response rating: 0
[1]; [16]
  Plant response rating, Blackgrass: 5
[1]; [17]
  Plant response rating, Blackgrass: 40
[1]; [22]
  Blackgrass plant response rating: 5
Corn (Zea mays); [15]
  Corn plant response rating: 0
Corn (Zea mays); [16]
  Plant response rating, Corn: 0
Corn (Zea mays); [17]
  Plant response rating, Corn: 0
Corn (Zea mays); [22]
  Corn plant response rating: 0
[2]; [15]
  Crabgrass, Large plant response rating: 0
[2]; [16]
  Plant response rating, Crabgrass, Large: 5
[2]; [17]
  Plant response rating, Crabgrass, Large: 20
[2]; [22]
  Crabgrass, Large plant response rating: 5
[3]; [15]
  Foxtail, Giant plant response rating: 0
[3]; [16]
  Plant response rating, Foxtail, Giant: 0
[3]; [17]
  Plant response rating, Foxtail, Giant: 50
[3]; [22]
  Foxtail, Giant plant response rating: 0
[4]; [15]
  Galium plant response rating: 80
[4]; [16]
  Plant response rating, Galium: 90
[4]; [17]
  Plant response rating, Galium: 90
[4]; [22]
  Galium plant response rating: 85
[5]; [15]
  Johnsongrass plant response rating: 0
[5]; [16]
  Plant response rating, Johnsongrass: 5
[5]; [17]
  Plant response rating, Johnsongrass: 10
[5]; [22]
  Johnsongrass plant response rating: 0
[6]; [15]
  Lambsquarters plant response rating: 0
[6]; [16]
  Plant response rating, Lambsquarters: 85
[6]; [17]
  Plant response rating, Lambsquarters: 85
[6]; [22]
  Lambsquarters plant response rating: 50
[7]; [15]
  Morningglory plant response rating: 35
[7]; [16]
  Plant response rating, Morningglory: 50
[7]; [17]
  Plant response rating, Morningglory: 50
[7]; [22]
  Morningglory plant response rating: 50
[8]; [15]
  Nutsedge, Yellow plant response rating: 0
[8]; [16]
  Plant response rating, Nutsedge, Yellow: 50
[8]; [17]
  Plant response rating, Nutsedge, Yellow: 60
[8]; [22]
  Nutsedge, Yellow plant response rating: 5
[9]; [15]
  Oilseed Rape plant response rating: 0
[9]; [16]
  Plant response rating, Oilseed Rape: 0
[9]; [17]
  Plant response rating, Oilseed Rape: 0
[9]; [22]
  Oilseed Rape plant response rating: 0
[10]; [15]
  Pigweed plant response rating: 80
[10]; [16]
  Plant response rating, Pigweed: 85
[10]; [17]
  Plant response rating, Pigweed: 90
[10]; [22]
  Pigweed plant response rating: 75
[11]; [15]
  Ryegrass, Italian plant response rating: 40
[11]; [16]
  Plant response rating, Ryegrass, Italian: 65
[11]; [17]
  Plant response rating, Ryegrass, Italian: 90
[11]; [22]
  Ryegrass, Italian plant response rating: 60
Soybean (Glycine max); [15]
  Soybean plant response rating: 0
Soybean (Glycine max); [16]
  Plant response rating, Soybean: 0
Soybean (Glycine max); [17]
  Plant response rating, Soybean: 0
Soybean (Glycine max); [22]
  Soybean plant response rating: 0
[12]; [15]
  Velvetleaf plant response rating: 0
[12]; [16]
  Plant response rating, Velvetleaf: 15
[12]; [17]
  Plant response rating, Velvetleaf: 70
[12]; [22]
  Velvetleaf plant response rating: 0
[13]; [15]
  Waterhemp plant response rating: 55
[13]; [16]
  Plant response rating, Waterhemp: 95
[13]; [17]
  Plant response rating, Waterhemp: 90
[13]; [22]
  Waterhemp plant response rating: 75
[14]; [15]
  Wheat plant response rating: 0
[14]; [16]
  Plant response rating, Wheat: 5
[14]; [17]
  Plant response rating, Wheat: 5
[14]; [22]
  Wheat plant response rating: 0
